In patent US20250250264A1, “KIF18A INHIBITOR AND USE THEREOF” (Wuhan Humanwell Innovative Drug Research and Development …, priority 2022, published 2025):

Experiments:
[1] = target: recombinant protein KIF18A (kinesin domain: aa 1-467) (Homo sapiens (Human), UniProt Q8NI77); assay: Assay on inhibition of KIF18A enzymatic activity (ADP-Glo); assay type: biochemical; conditions: KIF18A 80 nM, ATP 80 μM, 3 h at room temperature, ADP-Glo luminescence; read-out: IC50 (μM), inhibitory effects of compounds on KIF18A enzymatic activity
recombinant protein KIF18A (kinesin domain: aa 1-467), sequence (Q8NI77 1-467): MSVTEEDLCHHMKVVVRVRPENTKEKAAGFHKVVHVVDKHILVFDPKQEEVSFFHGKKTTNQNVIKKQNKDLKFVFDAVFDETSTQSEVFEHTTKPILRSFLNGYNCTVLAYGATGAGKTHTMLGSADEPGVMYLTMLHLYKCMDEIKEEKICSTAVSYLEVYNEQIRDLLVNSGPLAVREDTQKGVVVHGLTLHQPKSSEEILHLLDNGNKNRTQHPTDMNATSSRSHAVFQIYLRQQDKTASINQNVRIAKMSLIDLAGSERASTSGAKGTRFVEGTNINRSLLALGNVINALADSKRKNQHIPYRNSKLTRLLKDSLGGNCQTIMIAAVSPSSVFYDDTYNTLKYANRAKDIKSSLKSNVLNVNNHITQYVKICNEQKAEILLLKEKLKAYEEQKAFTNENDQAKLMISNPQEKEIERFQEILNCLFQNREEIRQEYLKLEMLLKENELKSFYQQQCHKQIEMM
recombinant protein KIF18A (kinesin domain: aa 1-467), sequence (P02550 whole entry partner, the tested form may be a part): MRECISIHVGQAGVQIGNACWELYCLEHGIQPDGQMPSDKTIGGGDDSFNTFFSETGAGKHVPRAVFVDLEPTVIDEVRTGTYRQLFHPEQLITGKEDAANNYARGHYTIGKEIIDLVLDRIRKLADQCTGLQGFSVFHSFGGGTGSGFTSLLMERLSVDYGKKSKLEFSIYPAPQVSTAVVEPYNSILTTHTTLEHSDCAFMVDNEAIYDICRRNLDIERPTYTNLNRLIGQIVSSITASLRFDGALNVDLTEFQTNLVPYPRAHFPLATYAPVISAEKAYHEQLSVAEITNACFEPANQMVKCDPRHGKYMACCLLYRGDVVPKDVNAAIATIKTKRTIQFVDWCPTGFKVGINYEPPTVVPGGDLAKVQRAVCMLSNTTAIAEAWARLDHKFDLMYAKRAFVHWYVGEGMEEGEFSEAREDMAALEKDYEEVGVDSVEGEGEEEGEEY
recombinant protein KIF18A (kinesin domain: aa 1-467), sequence (P02554 whole entry partner, the tested form may be a part): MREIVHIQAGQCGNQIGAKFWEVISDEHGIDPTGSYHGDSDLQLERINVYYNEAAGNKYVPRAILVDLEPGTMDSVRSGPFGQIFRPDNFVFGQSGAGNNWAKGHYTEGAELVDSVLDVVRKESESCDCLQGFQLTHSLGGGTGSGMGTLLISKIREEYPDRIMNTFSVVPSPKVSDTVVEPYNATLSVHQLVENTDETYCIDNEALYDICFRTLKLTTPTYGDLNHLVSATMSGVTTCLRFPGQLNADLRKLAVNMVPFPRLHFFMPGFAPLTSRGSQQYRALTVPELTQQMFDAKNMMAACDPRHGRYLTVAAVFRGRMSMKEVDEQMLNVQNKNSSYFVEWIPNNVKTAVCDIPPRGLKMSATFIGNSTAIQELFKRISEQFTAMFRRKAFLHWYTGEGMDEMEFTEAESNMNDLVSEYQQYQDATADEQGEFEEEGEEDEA
Excerpt: The recombinant protein KIF18A (kinesin domain: aa 1-467) used in this assay was expressed by the Bac-to-Bac baculovirus expression system from Invitrogen, and the resulting protein was purified for use in this assay (Seki, M. et al. 2003 Nucleic Acids Res.). Quantitative detection of KIF18A enzymatic activity was completed using an ADP-Glo™ kinase assay kit (Promega Inc). Related procedures strictly followed the product instructions, which are briefly described as follows:
The reaction system consisted of a test compound, the recombinant protein KIF18A (aa 1-467), ATP (Promega Inc), and an assay buffer. The test compound was prepared into a 0.5 mM stock solution using DMSO (Sigma Inc) and then serially diluted in DMSO. The assay buffer consisted of an aqueous solution of 15 mM Tris, 10 mM MgCl2 (Sigma Inc), 0.01% Pluronic F-68 (Life Technologies Inc), 1 μM paclitaxel (Cytoskeleton Inc), 30 μg/mL porcine tubulin (Cytoskeleton Inc), and 2% DMSO. The KIF18A protein (final concentration: 80 nM) and the compound at different concentrations (1 μL) were added to the prepared assay buffer (50 μL), and the mixture was incubated at room temperature for 15 min. Then, ATP (final concentration: 80 μM) was added to the reaction mixture, and the resulting mixture was incubated at room temperature for 3 h. After the reaction was completed, 5 μL of the ADP-Glo™ reagent and 2.5 μL of the reaction mixture were added to a 384-well plate (Grenier Inc). The resulting mixture was mixed homogeneously, then sealed by an aluminum foil sealing film, and incubated at room temperature in the dark for 40 min. Finally, 10 μL of the […] was added to each reaction well, and the mixture was incubated at room temperature in the dark for 40 min. After all reactions were completed, the luminescence values of the wells were read on a microplate reader (Molecular Device_SpectraMax Id5), and the inhibition ratios were calculated. The calculation formula for the inhibition rates was as follows: inhibition rate=(1−(compound group−blank group)/(negative control group−blank group))×100%. Then, based on the inhibition rates at different compound concentrations, the IC50 value of the test compound was calculated using the GraphPad Prism 8 software.

[2] = tested on: NIH:OVCAR-3 cells; assay: Assay on inhibition of OVCAR3 tumor cell proliferation (CellTiter-Glo); assay type: cell-based; conditions: Homo sapiens, OVCAR-3, 72 h, 3 days of drug treatment, read-out: IC50 (μM), inhibitory effects of compounds on tumor cell proliferation
Experimental: NIH:OVCAR-3 cells (ATCC, Cat No. HTB-161, purchased from Co-Bier) were seeded into a T75 culture flask and cultured in an RPMI 1640 medium containing 20% FBS for 3 days in preparation for subsequent culturing and seeding into a 96-well plate for the cell proliferation assay.
The OVCAR3 cells were seeded at a density of 3000 cells/100 μL/well into the 96-well cell plate, and then the plate was incubated in an incubator (37° C., 5% CO2) for 18 h. On the second day, drug treatment was started. Serially diluted test compound solutions (each drug starting at a concentration of 10 μM, diluted in DMSO, with a dilution ratio of 1:3, and nine gradient points for each drug) or DMSO (negative control) was added to the medium in the plate at 100 μL/well, and a blank group was set up with only medium, but no seeded cell strains. After the drug addition, the plate was incubated in the incubator for another 3 days (37° C., 5% CO2). On the fourth day, plate detection was performed. To each well, 100 μL of CellTiter-Glo reagent (Promega G9243) was added. The plate was shaken for 5 min and then left to stand at room temperature for 5 min. The chemical luminescence signal value of each well was determined using a microplate reader (PerkinElmer EnVision®2104). Cell proliferation inhibition rate=(1−(compound group−blank group)/(DMSO group−blank group))×100%. Then, the IC50 value of each compound was calculated using the GraphPad Prism 8 software.

Row | SMILES | IC50 [1] [µM] | IC50 [2] [µM]
1 | Cc1cc(-c2nnc(-c3ccc(NS(=O)(=O)CCO)cc3N3CCC4(CC3)CC4)o2)nc(N2CCO[C@H](C)C2)c1 [Example I-1, (R)-2-Hydroxy-N-(4-(5-(4-methyl-6-(2-methylmorpholino)pyridin-2-yl)-1,3,4-oxadiazol-2-yl)-3-(6-azaspiro[2.5]octan-6-yl)phenyl)ethane-1-sulfonamide] | 0.033 | 0.045
2 | Cc1cc(-c2nnc(-c3ccc(NS(=O)(=O)CCO)cc3N3CCC4(CC3)CC4)o2)nc(N2C[C@@H](F)[C@@H](F)C2)n1 [Example I-101, N-(4-(5-(2-((3S,4R)-3,4-Difluoropyrrolidin-1-yl)-6-methylpyrimidin-4-yl)-1,3,4-oxadiazol-2-yl)-3-(6-azaspiro[2.5]octan-6-yl)phenyl)-2-hydroxyethane-1-sulfonamide] | 0.008 | 0.26
3 | Cc1cc(-c2nnc(-c3ccc(NS(=O)(=O)CCO)cc3N3CCC4(CC3)CC4)o2)nc(N2CC3CC3C2)n1 (centres unmarked) [Example I-86, N-(4-(5-(2-(3-azabicyclo[3.1.0]hexan-3-yl)-6-methylpyrimidin-4-yl)-1,3,4-oxadiazol-2-yl)-3-(6-azaspiro[2.5]octan-6-yl)phenyl)-2-hydroxyethane-1-sulfonamide] | 0.003 | 0.07
4 | Cc1cc(-c2nnc(-c3ccc(NS(=O)(=O)CCO)cc3N3CCC4(CC3)CC4)o2)nc(N2CCC3(CC3)C2)n1 [Example I-17, 2-Hydroxy-N-(4-(5-(6-methyl-2-(5-azaspiro[2.4]heptan-5-yl)pyrimidin-4-yl)-1,3,4-oxadiazol-2-yl)-3-(6-azaspiro[2.5]octan-6-yl)phenyl)ethane-1-sulfonamide] | 0.01 | 0.56
5 | O=S(=O)(CCO)Nc1ccc(-n2cc(-c3ccnc(N4CCC(F)(F)CC4)n3)cn2)c(N2CCC3(CC2)CC3)c1 [Example I-109, N-(4-(4-(2-(4,4-Difluoropiperidin-1-yl)pyrimidin-4-yl)-1H-pyrazol-1-yl)-3-(6-azaspiro[2.5]octan-6-yl)phenyl)-2-hydroxyethane-1-sulfonamide] | 0.005 | 0.066

Compounds with a lower IC50 [1], results first:

Row | IC50 [1] [µM] | IC50 [2] [µM] | SMILES
6 | 0.002 | 0.107 | Cc1cc(-c2cnn(-c3ccc(NS(=O)(=O)[C@@H](C)CO)cc3N3CCC4(CC3)CC4)c2)nc(N2CCC(F)(F)CC2)n1 [Example I-112, (S)—N-(4-(4-(2-(4,4-Difluoropiperidin-1-yl)-6-methylpyrimidin-4-yl)-1H-pyrazol-1-yl)-3-(6-azaspiro[2.5]octan-6-yl)phenyl)-1-hydroxypropane-2-sulfonamide]
7 | 0.002 | 0.12 | Cc1cc(-c2nnc(-c3ccc(NS(=O)(=O)CCO)cc3N3CCC4(CC3)CC4)s2)nc(N2CCC(F)(F)CC2)n1 [Example I-77, N-(4-(5-(2-(4,4-Difluoropiperidin-1-yl)-6-methylpyrimidin-4-yl)-1,3,4-thiadiazol-2-yl)-3-(6-azaspiro[2.5]octan-6-yl)phenyl)-2-hydroxyethane-1-sulfonamide]
